Test results published in patent US5041567A, “Antibacterial monic acid derivatives” (Beecham Group plc, priority 1982, dated 1991).
Values after ≈ are worked out from the molar mass of the structure shown. Where two headings read alike, the source gives them in different places.

Columns and labels:
M. suipneumoniae Str. 11 = assay: MIC against mycoplasma in vitro; assay type: cell-based; conditions: Mesomycoplasma hyopneumoniae, STR.11, 144 h
M. hyorhinis ATCC 25021 = assay: MIC against mycoplasma in vitro; assay type: cell-based; conditions: Mesomycoplasma hyorhinis, ATCC25021, 144 h
[1] = tested on: Haemophilus influenzae Wy21; assay: MIC against human bacteria in vitro; assay type: cell-based
Staph. aureus Oxford = assay: MIC against veterinary bacteria in vitro; conditions: Staphylococcus aureus, 18 h
Description: (§1) The activity of the compounds of the Examples against various veterinarily important bacteria, was assayed in vitro using two-fold serial dilutions in Diagnostic Sensitivity Test Agar inoculated with 10^4 organisms.

Strep. spp. 64/848-C = assay: MIC against human bacteria in vitro; assay type: cell-based
Staph. aureus W2827 = assay: MIC against human bacteria in vitro; assay type: cell-based; conditions: Staphylococcus aureus
Strep. pneumoniae CN33 = assay: MIC against human bacteria in vitro; assay type: cell-based; conditions: Streptococcus pneumoniae; Strep. pneumoniae CN33; 5% chocolated horse blood agar, 18 hours; read-out: MIC
S. typhimurium S18 = assay: MIC against veterinary bacteria in vitro; conditions: Salmonella enterica, TYPHIMURIUM, 18 h
Description: as §1

[2] = tested on: Strep. pyogenes R80/421-A; assay: MIC against human bacteria in vitro; assay type: cell-based; conditions: Streptococcus pyogenes; Strep. pyogenes R80/421-A; 5% chocolated horse blood agar, 18 hours; read-out: MIC
Staph. aureus Russell = assay: MIC against human bacteria in vitro; assay type: cell-based; conditions: Staphylococcus aureus
M. suipneumoniae LABER = assay: MIC against mycoplasma in vitro; assay type: cell-based; conditions: Mesomycoplasma hyopneumoniae, 144 h
M. suipneumoniae MS 16 = assay: MIC against mycoplasma in vitro; assay type: cell-based; conditions: Mesomycoplasma hyopneumoniae, MS16, 144 h
[3] = tested on: Corynebacterium xerosis 9755; assay: MIC against human bacteria in vitro; assay type: cell-based
[4] = tested on: Neisseria catarrhalis 1502; assay: MIC against human bacteria in vitro; assay type: cell-based; conditions: Neisseria catarrhalis 1502; 5% chocolated horse blood agar, 18 hours; read-out: MIC
[5] = tested on: Corynebacterium pyogenes CY1; assay: MIC against veterinary bacteria in vitro; conditions: CY1, 18 h
Description: as §1

Strep. dysgalactiae SPD1 = assay: MIC against veterinary bacteria in vitro; conditions: Streptococcus dysgalactiae, SPD1, 18 h
Description: as §1

M. suipneumoniae HK(2) = assay: MIC against mycoplasma in vitro; assay type: cell-based; conditions: Mesomycoplasma hyopneumoniae, 144 h
E. coli ESS = assay: MIC against human bacteria in vitro; assay type: cell-based; conditions: Escherichia coli
K. aerogenes A = assay: MIC against human bacteria in vitro; assay type: cell-based; conditions: Klebsiella aerogenes
Bacillus subtilis 6633 = assay: MIC against human bacteria in vitro; assay type: cell-based
M. suipneumoniae NB12 = assay: MIC against mycoplasma in vitro; assay type: cell-based; conditions: Mesomycoplasma hyopneumoniae, NB12, 144 h
M. hyorhinis ATCC 23234 = assay: MIC against mycoplasma in vitro; assay type: cell-based; conditions: Mesomycoplasma hyorhinis, ATCC23234, 144 h
[6] = tested on: Erysipelothrix rhusiopathiae NCTC 8163; assay: MIC against veterinary bacteria in vitro; conditions: Erysipelothrix rhusiopathiae, NCTC8163, 18 h
Description: as §1

[7] = tested on: M. suipneumoniae ATCC 25095; assay: MIC against mycoplasma in vitro; assay type: cell-based; conditions: Mesomycoplasma hyopneumoniae, ATCC25095, 144 h
[8] = tested on: Staph. aureus 152 (pen. sens); assay: MIC against veterinary bacteria in vitro; conditions: Staphylococcus aureus, 18 h
Description: as §1

Past. multocida PA2 = assay: MIC against veterinary bacteria in vitro; conditions: Pasteurella multocida, PA2, 18 h
Description: as §1

Strep. uberis SPU1 = assay: MIC against veterinary bacteria in vitro; conditions: Streptococcus uberis, SPU1, 18 h
Description: as §1

S. dublin S7 = assay: MIC against veterinary bacteria in vitro; conditions: Salmonella enterica, S7, 18 h
Description: as §1

Strep. faecalis I = assay: MIC against human bacteria in vitro; assay type: cell-based; conditions: Enterococcus faecalis
M. suipneumoniae TAM 6N = assay: MIC against mycoplasma in vitro; assay type: cell-based; conditions: Mesomycoplasma hyopneumoniae, TAM6N, 144 h
E. coli NCTC 10418 = assay: MIC against human bacteria in vitro; assay type: cell-based; conditions: Escherichia coli
[9] = tested on: M. bovigenitalium ATCC 14173; assay: MIC against mycoplasma in vitro; assay type: cell-based; conditions: 144 h
Strep. agalactiae 2788-B = assay: MIC against human bacteria in vitro; assay type: cell-based; conditions: Streptococcus agalactiae; Strep. agalactiae 2788-B; 5% chocolated horse blood agar, 18 hours; read-out: MIC
[10] = tested on: Ps. aeruginosa NCTC 10662; assay: MIC against human bacteria in vitro; assay type: cell-based; conditions: Pseudomonas aeruginosa
Sarcina lutea 8340 = assay: MIC against human bacteria in vitro; assay type: cell-based

| Structure (SMILES) | MIC (M. suipneumoniae Str. 11) | MIC (Staph. aureus Oxford) | MIC (Strep. pneumoniae CN33) | MIC (S. typhimurium S18) | MIC [2] | MIC (M. suipneumoniae LABER) | MIC (M. suipneumoniae MS 16) | MIC [4] | MIC [5] | MIC (Strep. dysgalactiae SPD1) | MIC (M. suipneumoniae HK(2)) | MIC (M. suipneumoniae NB12) | MIC [6] | MIC [7] | MIC [8] | MIC (Past. multocida PA2) | MIC (Strep. uberis SPU1) | MIC (S. dublin S7) | MIC (M. suipneumoniae TAM 6N) | MIC [9] | other results |
| --- | --- | --- | --- | --- | --- | --- | --- | --- | --- | --- | --- | --- | --- | --- | --- | --- | --- | --- | --- | --- | --- |
| CSc1ccc(-c2cnc(/C=C(\C)C[C@@H]3OC[C@H](C[C@@H]4O[C@H]4[C@@H](C)[C@H](C)O)[C@@H](O)[C@H]3O)o2)cc1 [Example 9, 5-p-methylthiophenyl-2-(1-normon-2-yl)oxazole A] | 0.5 µg/mL (≈ 1.02 µM) | 0.625 µg/mL (≈ 1.28 µM) | 10 µg/mL (≈ 20.4 µM) | > 80 µg/mL | 10 µg/mL (≈ 20.4 µM) | 0.5 µg/mL (≈ 1.02 µM) | 0.5 µg/mL (≈ 1.02 µM) | 10 µg/mL (≈ 20.4 µM) | 80 µg/mL (≈ 163 µM) | 0.625 µg/mL (≈ 1.28 µM) | 0.5 µg/mL (≈ 1.02 µM) | 0.5 µg/mL (≈ 1.02 µM) | 80 µg/mL (≈ 163 µM) | 0.5 µg/mL (≈ 1.02 µM) | 0.625 µg/mL (≈ 1.28 µM) | 5 µg/mL (≈ 10.2 µM) | 0.16 µg/mL (≈ 0.327 µM) | > 80 µg/mL | 0.5 µg/mL (≈ 1.02 µM) | 0.1 µg/mL (≈ 0.204 µM) | MIC (M. hyorhinis ATCC 25021; M. hyorhinis ATCC 25021, 6 days, 37° C., read-out: MIC): 0.5 µg/mL (≈ 1.02 µM); MIC ([1]; Haemophilus influenzae, WY21, 18 h): 50 µg/mL (≈ 102 µM); MIC (Strep. spp. 64/848-C; 18 h): 5 µg/mL (≈ 10.2 µM); MIC (Staph. aureus W2827; W2827, 18 h): 5 µg/mL (≈ 10.2 µM); MIC (Staph. aureus Russell; 18 h): 5 µg/mL (≈ 10.2 µM); MIC ([3]; Corynebacterium xerosis, 9755, 18 h): > 100 µg/mL; MIC (E. coli ESS; 18 h): 5 µg/mL (≈ 10.2 µM); MIC (K. aerogenes A; 18 h): > 100 µg/mL; MIC (Bacillus subtilis 6633; Bacillus subtilis, 6633, 18 h): 1 µg/mL (≈ 2.04 µM); MIC (M. hyorhinis ATCC 23234; M. hyorhinis ATCC 23234, 6 days, 37° C., read-out: MIC): 0.5 µg/mL (≈ 1.02 µM); MIC (Strep. faecalis I; 18 h): > 100 µg/mL; MIC (E. coli NCTC 10418; NCTC10418, 18 h): > 100 µg/mL; MIC (Strep. agalactiae 2788-B): 10 µg/mL (≈ 20.4 µM); MIC ([10]; NCTC10662, 18 h): > 100 µg/mL; MIC (Sarcina lutea 8340; Micrococcus luteus, 8340, 18 h): > 100 µg/mL |
| C/C(=C\c1ncc(-c2ccc(S(C)(=O)=O)cc2)o1)C[C@@H]1OC[C@H](C[C@@H]2O[C@H]2[C@@H](C)[C@H](C)O)[C@@H](O)[C@H]1O [Example 10] | 0.025 µg/mL (≈ 0.0479 µM) | 2.5 µg/mL (≈ 4.79 µM) | 8 µg/mL (≈ 15.3 µM) | > 80 µg/mL | 8 µg/mL (≈ 15.3 µM) | 0.025 µg/mL (≈ 0.0479 µM) | 0.025 µg/mL (≈ 0.0479 µM) | 8 µg/mL (≈ 15.3 µM) | > 80 µg/mL | 2.5 µg/mL (≈ 4.79 µM) | 0.05 µg/mL (≈ 0.0959 µM) | 0.05 µg/mL (≈ 0.0959 µM) | > 80 µg/mL | 0.025 µg/mL (≈ 0.0479 µM) | 2.5 µg/mL (≈ 4.79 µM) | 1.25 µg/mL (≈ 2.4 µM) | 0.625 µg/mL (≈ 1.2 µM) | > 80 µg/mL | 0.05 µg/mL (≈ 0.0959 µM) | 0.025 µg/mL (≈ 0.0479 µM) | MIC (M. hyorhinis ATCC 25021): 0.025 µg/mL (≈ 0.0479 µM); MIC ([1]; Haemophilus influenzae Wy21, 5% chocolated horse blood agar, 18 hours, read-out: MIC): 2 µg/mL (≈ 3.83 µM); MIC (Strep. spp. 64/848-C; Strep. spp. 64/848-C, 5% chocolated horse blood agar, 18 hours, read-out: MIC): 4 µg/mL (≈ 7.67 µM); MIC (Staph. aureus W2827; Staph. aureus W2827, 5% chocolated horse blood agar, 18 hours, read-out: MIC): 8 µg/mL (≈ 15.3 µM); MIC (Staph. aureus Russell; Staph. aureus Russell, 5% chocolated horse blood agar, 18 hours, read-out: MIC): 8 µg/mL (≈ 15.3 µM); MIC ([3]; Corynebacterium xerosis 9755, 5% chocolated horse blood agar, 18 hours, read-out: MIC): > 128 µg/mL; MIC (E. coli ESS; E. coli ESS, 5% chocolated horse blood agar, 18 hours, read-out: MIC): 8 µg/mL (≈ 15.3 µM); MIC (K. aerogenes A; K. aerogenes A, 5% chocolated horse blood agar, 18 hours, read-out: MIC): > 128 µg/mL; MIC (Bacillus subtilis 6633; Bacillus subtilis 6633, 5% chocolated horse blood agar, 18 hours, read-out: MIC): 2 µg/mL (≈ 3.83 µM); MIC (M. hyorhinis ATCC 23234): 0.025 µg/mL (≈ 0.0479 µM); MIC (Strep. faecalis I; Strep. faecalis I, 5% chocolated horse blood agar, 18 hours, read-out: MIC): > 128 µg/mL; MIC (E. coli NCTC 10418; NCTC10418, E. coli NCTC 10418, agar with 5% chocolated horse blood, 18 hours, 37° C., read-out: MIC): > 128 µg/mL; MIC (Strep. agalactiae 2788-B): 8 µg/mL (≈ 15.3 µM); MIC ([10]; NCTC10662, Ps. aeruginosa NCTC 10662, 5% chocolated horse blood agar, 18 hours, read-out: MIC): > 128 µg/mL; MIC (Sarcina lutea 8340; Micrococcus luteus, Sarcina lutea 8340, 5% chocolated horse blood agar, 18 hours, read-out: MIC): > 128 µg/mL |
